Here are results for one substance from US20190046627A1, “USE OF A GNP-LLO91-99 COMPLEX FOR THE TREATMENT AND PREVENTION OF CANCER” (FUNDACIÓN INSTITUTO DE INVESTIGACIÓN MARQUES DE VALDECILLA, priority 2016, published 2019).

The subject of assay [1] is lung cancer cells. In words: Subcutaneous tumor transplant model (Example 9). The settings on record: subcutaneous transplants, C57BL/6, 50 μg/ml in-situ for 7 days. It counts as in vivo, mice. As for the experimental part:
(§1) 1.—Tumor cells. The cells used are: Hepa1-6, murine hepatocarcinoma, TC-1, murine lung carcinoma; B16F10, murine melanoma; A-375, human melanoma; hamster melanoma (ATCC).
(§2) 4.—Subcutaneous tumor transplant model. 8-12 week old females of the strain C57BL/6 are inoculated in the right flank with 1×10^5 tumor cells for 7 days in order to develop a measurable tumor (4-6 mm thickness). Subsequently, the tumors are inoculated in-situ with 50 μg/ml of the GNP-LLO91-99 gold nanoparticles for 7 days. The size of the tumors is measured with a gauge and is expressed in volume using the following formula: (length×(width)^2)/2.

Assay [2] relates to hepatocarcinomas. The assay is described as follows: Subcutaneous tumor transplant model (Example 9). The settings on record: subcutaneous transplants, C57BL/6, 50 μg/ml in-situ for 7 days. It counts as in vivo, mice. How it is done: as §1, §2
In assay [3] the test system is melanomas. The assay is described as follows: Subcutaneous tumor transplant model (Example 9). It counts as in vivo, mice. The following applies: subcutaneous transplants, C57BL/6, 50 μg/ml in-situ for 7 days. How it is done: as §1, §2
The test system of assay [4] is murine melanoma B16F10. The assay is described as follows: Reduction of the size of the tumor, subcutaneous murine melanoma in adult mice (Example 2). The assay is classed as in vivo. The following applies: adult C57BL/6 mice, s.c. B16F10 established 7 days, 50 μg/ml inoculated in the tumors for 5 days. How it is done: For the study of the reduction of the size of the tumor making use of different therapies and their comparison with that of the invention, 1×10^6 cells of murine melanoma B16F10 were inoculated in a subcutaneous manner in the left ventral flank of 8-12-week old female mice of the C57BL/6 strain.
After 7 days post-inoculation, 50 μg/ml of the following therapies were inoculated in the tumors for 5 days: LLO91-99 (only peptide from listeriolysin O of Listeria monocytogenes, LLO91-99), GNP (empty gluconanoparticles), GNP-LLO91-99 (gluconanoparticles synthesized with the peptide from listeriolysin O of Listeria monocytogenes, LLO91-99), GNP-GAPDH1-22 (nanoparticles synthesized with the peptide from glyceraldehyde-3-phosphate dehydrogenase of Listeria monocytogenes, GAPDH1-22) or no particle (NT). Dendritic cells loaded with the LLO91-99 (1×10^6 DC-LLO91-99) peptide were also included as a control, a vector previously used in therapy.
Following this treatment, the mice were sacrificed and the tumors recovered, measuring their size with a gauge.

In assay [5] the test system is murine melanoma B16F10. The assay is described as follows: Metastasis in the lung from murine melanoma (Example 3). The assay is classed as in vivo, mice. The settings on record: s.c. B16F10, 50 μg/ml inoculated in the tumors for 5 days. How it is done:
For the study of metastasis in the lung of murine melanoma following the use of different therapies and their comparison with that of the invention, 1×10^6 cells of murine melanoma B16F10 were inoculated in a subcutaneous manner just like in FIG. 1. Following 7 days post-inoculation, 50 μg/ml of the following therapeutic particles were inoculated in the tumors for 5 days: GNP (empty gluconanoparticles), GNP-LLO91-99 (gluconanoparticles synthesized with the peptide from listeriolysin O of Listeria monocytogenes, LLO91-99), GNP-GAPDH1-22 (nanoparticles synthesized with the peptide from glyceraldehyde-3-phosphate dehydrogenase of Listeria monocytogenes, GAPDH1-22) or no particle (NT). As a control, the vector previously used in therapy was also included consisting of dendritic cells loaded with the LLO91-99 (1×10^6 DC-LLO91-99) peptide.
Following this treatment, the mice were sacrificed and the lungs removed, which were washed with PBS. Subsequently, the tumor nodules were counted under a magnifying glass, which were observed as black spots on the lungs.

In assay [6] the test system is murine melanoma B16OVA. In words: Prevention of tumor growth, intraperitoneal melanoma after preventive treatment (Example 5). It counts as in vivo, mice. How it is done: For the comparative study of the prevention of tumor growth in adults between the therapy of the invention and known anti-tumor therapies, the following therapies (50 μg/ml) were inoculated in female adults of the C57BL/6 strain in an intraperitoneal manner: LLO91-99 (only peptide from listeriolysin O of Listeria monocytogenes, LLO91-99), GNP (empty gluconanoparticles), GNP-LLO91-99 (gluconanoparticles synthesized with the peptide from listeriolysin O of Listeria monocytogenes, LLO91-99), GNP-GAPDH1-22 (nanoparticles synthesized with the peptide from glyceraldehyde-3-phosphate dehydrogenase of Listeria monocytogenes, GAPDH1-22) or saline (NT).
Following 7 days preventative post-treatment, the tumors were established following inoculation with 5×10^6 cells of murine melanoma B16OVA in an intraperitoneal manner. Following 7 days post-established of the tumor, the mice were sacrificed and the recovered tumors were measured by means of a gauge and the tumors were analyzed by means of immunohistochemical staining. The results of the reduction of the tumor growth and their intraperitoneal position are shown in FIG. 4A and FIG. 4B and the results of the analysis of the immunohistochemical staining in FIG. 4C.

No end group written: not given here.

As to “GNP-LLO91-99: gluconanoparticles synthesized with the peptide from listeriolysin O of Listeria monocytogenes, LLO91-99 (GYKDGNEYI; also: gold glyconanoparticle conjugate; UniProt P13128 91-99, looked up, fragment)”, the “in vivo inhibitory effect of the tumor” value in assay [1], in assay [2] and in assay [3] was “inhibitory effect of the tumor is also observed in vivo” each time. The “therapeutic effect on the melanoma (in words)” value in assay [4] is on record as “does achieve a significant tumor regression”. The same substance had a tumor regression in assay [4] of 90%. For the same substance, in assay [5], the “formation of metastasis in the lungs (in words)” value is “prevents the formation of metastasis in the lungs”. The “prevention of the formation of metastasis in the lungs” value in assay [5] (lung tumor nodules counted) is recorded as “more than 95%”. Further, in assay [6] (50 μg/ml intraperitoneal 7 days before i.p. B16OVA, adult C57BL/6, tumors measured 7 days after establishment), the “prevention of tumor growth” value was found to be 90%. In addition, in assay [6] (immunohistochemical staining of recovered peritoneal tumors), the “necrotizing foci in the melanomas” value worked out at 60%. The “position of the tumor / spreading to other organs” value in assay [6] (intraperitoneal B16OVA after preventive treatment) is “positioned intraperitoneally preventing its spreading to other organs”.
